Source: ChEMBL document CHEMBL1201862, “PubChem BioAssay data set” (2004)
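Five concentrations, 48 hours, 96-well plates. GI50 = concentration required for 50% inhibition of growth.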 Active and inactive are the calls of the source. No stated cut-off is given here; in the data, active = GI50 up to about 1.1 µM and inactive = higher.

How the values were obtained:
Assay in all cases: growth of human tumour cells (NCI), 48 h
[1] = test system: XF498
[2] = test system: DMS-114
[3] = test system: SF-295
[4] = test system: A549
[5] = test system: SNB-78
[6] = test system: HL-60
[7] = test system: SF-539
[8] = test system: SK-MEL-28
[9] = test system: U-251
[10] = test system: K562
[11] = test system: 786-0
[12] = test system: HOP-18
[13] = test system: A498
[14] = test system: SNB-75
[15] = test system: NCI-H522
[16] = test system: SNB-19
[17] = test system: HOP-62
[18] = test system: SF-268
[19] = test system: DMS-273
[20] = test system: COLO 205
[21] = test system: DLD-1
[22] = test system: NCI-H226
[23] = test system: TK-10
[24] = test system: UACC-257
[25] = test system: SK-MEL-5
[26] = test system: MOLT-4
[27] = test system: KM-20L2
[28] = test system: SW-620
[29] = test system: CCRF-CEM
[30] = test system: KM12
[31] = test system: RXF 393
[32] = test system: LOX IMVI
[33] = test system: IGROV-1
[34] = test system: CAKI-1
[35] = test system: OVCAR-3
[36] = test system: M19-MEL
[37] = test system: OVCAR-8
[38] = test system: HCT-15
[39] = test system: NCI-H23
[40] = test system: OVCAR-5
[41] = test system: Malme-3M
[42] = test system: SN12C
[43] = test system: HT-29
[44] = test system: M14
[45] = test system: UACC-62
[46] = test system: RXF 631
[47] = test system: SK-OV-3
[48] = test system: LXFL 529
[49] = test system: SK-MEL-2
[50] = test system: ACHN
[51] = test system: NCI-H460
[52] = test system: HCT-116
[53] = test system: OVCAR-4
[54] = test system: EKVX
[55] = test system: HCC 2998

In the case of `CCOC(=O)[C@H]1Nc2ccc(Cl)cc2[C@H]2OCC[C@@H]12`, the GI50 [1] is reported as > 100 µM (inactive), the GI50 [2] is reported as > 100 µM (inactive) and the GI50 [3] is reported as > 100 µM (inactive). The GI50 [4] was > 100 µM (inactive), the GI50 [5] was > 100 µM (inactive) and the GI50 [6] was > 100 µM (inactive). The GI50 [7] was > 100 µM (inactive), the GI50 [8] was > 100 µM (inactive) and the GI50 [9] was > 100 µM (inactive). The GI50 [10] was > 100 µM (inactive), the GI50 [11] was > 100 µM (inactive) and the GI50 [12] was > 100 µM (inactive). The GI50 [13] was > 100 µM (inactive), the GI50 [14] was > 100 µM (inactive) and the GI50 [15] was > 100 µM (inactive). For the same molecule, the GI50 [16] was > 100 µM (inactive), the GI50 [17] was > 100 µM (inactive) and the GI50 [18] was > 100 µM (inactive). The GI50 [19] was > 100 µM (inactive), the GI50 [20] was > 100 µM (inactive) and the GI50 [21] was > 100 µM (inactive). For the same molecule, the GI50 [22] was > 100 µM (inactive), the GI50 [23] was > 100 µM (inactive) and the GI50 [24] was > 100 µM (inactive). For the same molecule, the GI50 [25] was > 100 µM (inactive), the GI50 [26] was > 100 µM (inactive) and the GI50 [27] was > 100 µM (inactive). The GI50 [28] was > 100 µM (inactive), the GI50 [29] was > 100 µM (inactive) and the GI50 [30] was > 100 µM (inactive). The GI50 [31] was > 100 µM (inactive), the GI50 [32] was > 100 µM (inactive) and the GI50 [33] was > 100 µM (inactive). The GI50 [34] was > 100 µM (inactive), the GI50 [35] was > 100 µM (inactive) and the GI50 [36] was > 100 µM (inactive). The GI50 [37] was > 100 µM (inactive), the GI50 [38] was > 100 µM and the GI50 [39] was > 100 µM (inactive). For the same molecule, the GI50 [40] was > 100 µM (inactive), the GI50 [41] was > 100 µM (inactive) and the GI50 [42] was > 100 µM (inactive). The GI50 [43] was > 100 µM (inactive), the GI50 [44] was > 100 µM (inactive) and the GI50 [45] was > 100 µM (inactive). For the same molecule, the GI50 [46] was > 100 µM (inactive), the GI50 [47] was > 100 µM (inactive) and the GI50 [48] was > 100 µM (inactive). The GI50 [49] was 75 µM (inactive), the GI50 [50] was > 100 µM (inactive) and the GI50 [51] was > 100 µM (inactive). For the same molecule, the GI50 [52] was > 100 µM (inactive), the GI50 [53] was > 100 µM (inactive) and the GI50 [54] was > 100 µM (inactive). The GI50 [55] was > 100 µM (inactive).
